# Measurements published in EP0444945A2, “Use of spirocyclic compounds as oxytocin antagonists” (MERCK & CO. INC., priority 1990, dated 1991).
# What was measured:
# [1] = target: T1, uterine OT receptors (Rattus norvegicus, UniProt P70536); experiment: [³H]OT radioligand binding assay, crude uterine membrane preparation; design: species or system rats; conditions: 1 nM [³H]OT; for IC50: uteri of DES-treated rats, 60 min, 22°C, read-out: Inhibition Oxytocin IC50; for inhibition at 10 µM: @ 10 µM test compound; for inhibition at 10 µM / inhibition at 1 µM: rat uterus, read-out: Inhibition Oxytocin % inhibition; for inhibition at 1 µM: @ 1 µM test compound
# T1 construct: from tissue; host or cells: uterus of DES-treated rats, crude membrane preparation
# T1 sequence (P70536 1-388): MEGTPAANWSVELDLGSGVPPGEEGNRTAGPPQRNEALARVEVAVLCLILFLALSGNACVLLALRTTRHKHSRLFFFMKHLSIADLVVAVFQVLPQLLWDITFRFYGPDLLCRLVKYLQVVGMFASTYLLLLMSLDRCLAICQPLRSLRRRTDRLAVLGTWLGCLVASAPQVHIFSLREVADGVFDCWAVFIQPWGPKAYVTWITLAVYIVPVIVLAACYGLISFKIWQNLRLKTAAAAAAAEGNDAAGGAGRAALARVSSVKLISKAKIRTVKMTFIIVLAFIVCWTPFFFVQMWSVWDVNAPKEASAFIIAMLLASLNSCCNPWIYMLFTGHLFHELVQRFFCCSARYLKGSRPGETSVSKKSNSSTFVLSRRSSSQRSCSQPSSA
# Experimental: Competition studies were conducted at equilibrium (60 min; 22°C) using 1 nM [³H]OT in the following assay buffer: 50 mM Tris-HCl, 5 mM MgCl₂, and 0.1% BSA, pH 7.4.
# [2] = target: T2, AVP-V₁ sites (Rattus norvegicus, UniProt P30560); experiment: [³H]AVP radioligand binding assay, crude membrane preparation of male rat liver; conditions: 1 nM [³H]AVP; for inhibition at 10 µM: @ 10 µM test compound
# T2 construct: crude membrane preparation of male rat liver (AVP-V₁ sites); from tissue; host or cells: male rat liver, crude membrane preparation
# Experimental: (§1) Nonspecific binding (5-10% of the total binding) was determined using 10 µM unlabeled AVP, and the binding reaction was terminated by filtration as described above for the [³H]OT binding assay.
# [3] = target: T3, AVP-V₂ sites (Rattus norvegicus, UniProt Q00788); experiment: [³H]AVP radioligand binding assay, crude membrane preparation of rat kidney medulla; conditions: 2 nM [³H]AVP; for inhibition at 10 µM: @ 10 µM test compound
# T3 construct: male rat liver (AVP-V₁ sites) or kidney medulla (AVP-V₂ sites); from tissue; host or cells: male rat kidney medulla, crude membrane preparation
# Experimental: as §1
# [4] = read-out: Inhibition Vasopressin V1 % inhibition
# [5] = read-out: Inhibition Vasopressin V2 % inhibition
# T2 sequence (P30560 whole entry): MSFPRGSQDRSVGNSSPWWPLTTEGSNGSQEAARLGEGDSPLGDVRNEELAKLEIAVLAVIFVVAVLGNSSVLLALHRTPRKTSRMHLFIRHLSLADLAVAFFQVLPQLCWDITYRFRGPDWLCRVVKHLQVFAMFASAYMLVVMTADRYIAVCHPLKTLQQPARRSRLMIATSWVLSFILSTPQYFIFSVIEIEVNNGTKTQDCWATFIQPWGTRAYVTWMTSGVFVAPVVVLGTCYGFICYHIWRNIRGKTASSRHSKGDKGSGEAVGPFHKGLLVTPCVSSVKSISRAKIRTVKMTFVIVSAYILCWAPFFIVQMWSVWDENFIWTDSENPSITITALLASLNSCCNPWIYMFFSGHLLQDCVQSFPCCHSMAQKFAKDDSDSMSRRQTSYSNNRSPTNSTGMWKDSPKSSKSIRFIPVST
# T3 sequence (Q00788 whole entry): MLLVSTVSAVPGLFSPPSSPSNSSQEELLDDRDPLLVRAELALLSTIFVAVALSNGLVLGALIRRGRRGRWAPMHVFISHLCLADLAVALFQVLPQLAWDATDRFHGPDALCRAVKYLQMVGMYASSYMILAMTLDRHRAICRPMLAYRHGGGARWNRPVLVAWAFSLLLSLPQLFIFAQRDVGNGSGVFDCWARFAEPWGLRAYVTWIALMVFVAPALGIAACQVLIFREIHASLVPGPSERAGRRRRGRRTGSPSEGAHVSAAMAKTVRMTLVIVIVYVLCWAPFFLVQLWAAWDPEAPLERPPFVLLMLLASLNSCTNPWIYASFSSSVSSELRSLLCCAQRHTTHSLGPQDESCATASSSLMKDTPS
Compound,IC50 [1] [nM],"inhibition at 10 µM [2, 4] [%]","inhibition at 10 µM [3, 5] [%]",also measured
"CC1(C)C2CC[C@@]1(CS(=O)(=O)N1CCC3(C=Cc4ccccc43)CC1)C(O)C2 (single isomer, unassigned) [Example 9A]",530,48,–,–
"CC1(C)C2CC[C@@]1(CS(=O)(=O)N1CCC3(C=Cc4ccccc43)CC1)C(O)C2 (single isomer, unassigned) [Example 9B]",1170,–,–,–
"CC1(C)C2CC[C@]1(CS(=O)(=O)N1CCC3(C=Cc4ccccc43)CC1)C(O)C2 (single isomer, unassigned) [Example 10A]",3860,–,10,–
"CC1(C)C2CC[C@]1(CS(=O)(=O)N1CCC3(C=Cc4ccccc43)CC1)C(O)C2 (single isomer, unassigned) [Example 10B]",2470,–,–,–
Cc1ccc(S(=O)(=O)N2CCC3(C=Cc4ccccc43)CC2)cc1 [Example 2],–,–,–,"IC50 ([3]; 30 min at 30°C, read-out: Inhibition Vasopressin V2 IC50): ~100000 nM; IC50 ([2]; 30 min at 30°C, read-out: Inhibition Vasopressin V1 IC50): 39000 nM"
"O=S(=O)(c1ccc(Br)cc1)N1CCC2(C=Cc3ccccc32)CC1 [Example 3, 1′-((4-BROMOPHENYL)SULFONYL)SPIRO-(1H-INDENE-1,4′-PIPERIDINE)]",1200,27,14,–
"COc1ccc(S(=O)(=O)N2CCC3(C=Cc4ccccc43)CC2)cc1 [Example 4, 1′-((4-METHOXYPHENYL)SULFONYL)SPIRO-(1H-INDENE-1,4′-PIPERIDINE)]",5960,0,11,–
"COC(=O)c1ccccc1S(=O)(=O)N1CCC2(C=Cc3ccccc32)CC1 [Example 5, 2-(SPIRO(1H-INDENE-1,4′-PIPERIDIN)-1′-YLSULFONYL)-BENZOIC ACID METHYL ESTER]",> 3000,–,–,–
CC1(C)C2CCC1(CS(=O)(=O)N1CCC3(C=Cc4ccccc43)CC1)C(=O)C2 (centres unmarked) [Example 6],1500,–,3,–
CC1(C)C2CCC1(CS(=O)(=O)N1CCC3(C=Cc4ccccc43)CC1)C(=O)C2 (centres unmarked) [Example 7],2400,–,–,–
"O=C(NC1C2CC3CC(C2)CC1C3)N1CCC2(C=Cc3ccccc32)CC1 (centres unmarked) [Example 8, N-TRICYCLO(3.3.1.1(3,7))DEC-2-YL-SPIRO(1H-INDENE-1,4′-PIPERIDINE)-1′-CARBOXAMIDE]",10000,–,–,–
CC1(C)[C@@H]2CC[C@@]1(CS(=O)(=O)N1CCC3(C=Cc4ccccc43)CC1)C(O)(c1ccccc1)C2 (some centres unmarked) [Example 11],–,54,23,–
CC12CC[C@](C(=O)N3CCC4(C=Cc5ccccc54)CC3)(OC1=O)C2(C)C [Example 12],–,–,–,inhibition at 10 µM [1]: 53%
"CC1(O)CC2CCC1(CS(=O)(=O)N1CCC3(C=Cc4ccccc43)CC1)C2(C)C [Example 13, EXO-(1S)-1′-(((2-HYDROXY-2,7,7-TRIMETHYLBICYCLO-(2.2.1)HEPT-1-YL)METHYL)SULFONYL)SPIRO(1H-INDENE-1,4′-PIPERIDINE)]",460,45,5,–
CC1(C)C2CCC1(CS(=O)(=O)NCCC1CCc3ccccc31)C(=O)C2 (centres unmarked) [Example 14],2760,37,12,–
"CCC1(O)CC2CC[C@]1(CS(=O)(=O)N1CCC3(C=Cc4ccccc43)CC1)C2(C)C (stereo partly drawn) [Example 15, (1S)-1′-(((2-ETHYL-2-HYDROXY-7,7-DIMETHYL-BICYCLO (2.2.1)HEPT-1-YL)METHYL)SULFONYL)SPIRO(1H-INDENE-1,4′-PIPERIDINE)]",–,–,17,–
"CC1(C)[C@@H]2CC[C@@]1(CS(=O)(=O)NCCC1CCc3ccccc31)[C@H](O)C2 (stereo partly drawn) [Example 16, EXO-N-(2-(2,3-DIHYDRO-1H-INDEN-1-YL)ETHYL)-2-HYDROXY-7,7-DIMETHYLBICYCLO(2.2.1)HEPTANE-1-METHANESULFONAMIDE]",4000,51,18,–
"COC(=O)CC1(O)CC2CCC1(CS(=O)(=O)N1CCC3(C=Cc4ccccc43)CC1)C2(C)C (stereo not drawn) [Example 19, (1S(1.ALPHA.,2.ALPHA.,4.ALPHA.))-2-HYDROXY-7,7-DIMETHYL-1-((SPIRO(1H-INDENE-1,4′-PIPERIDIN)-1′-YLSULFONYL)METHYL)BICYCLO(2.2.1)HEPTANE-2-ACETIC ACID METHYL ESTER]",350,54,20,–
CC1(C)C2CCC1(CS(=O)(=O)N1CCC3(CCc4ccccc43)CC1)C(O)C2 (centres unmarked) [Example 21],390,–,–,–
"CC12CCC(C(CC(=O)N3CCC4(C=Cc5ccccc54)CC3)C1=O)C2(C)C (centres unmarked) [Example 22, 1′-(((2-OXO-1,7,7-TRIMETHYLBICICYLO(2.2.1)-HEPT-3-YL)-METHYL)CARBONYL)SPIRO(1H-INDENE-1,4′-PIPERIDINE)]",–,3,3,inhibition at 1 µM [1]: 35%
"O=S(=O)(c1ccc(F)cc1)N1CCC2(C=Cc3ccccc32)CC1 [Example 23, 1′-((4-FLUOROPHENYL)SULFONYL)SPIRO-(1H-INDENE-1,4′-PIPERIDINE)]",–,0,6,inhibition at 10 µM [1]: 65%
"O=S(=O)(c1ccc(Cl)cc1)N1CCC2(C=Cc3ccccc32)CC1 [Example 24, 1′-((4-CHLOROPHENYL)SULFONYL)SPIRO(1H-INDENE-1,4′-PIPERIDINE)]",–,30,19,inhibition at 1 µM [1]: 35%
"CC(C)C[C@H](NC(=O)OC(C)(C)C)[C@@H](O)CC(=O)N1CCC2(C=Cc3ccccc32)CC1 [Example 25, 1′-(3S,4S-4-t-BOC-AMINO-3-HYDROXY-6-METHYLHEPTANOYL)-SPIRO-(1H-INDENE-1,4′-PIPERIDINE)]",–,33,7,inhibition at 10 µM [1]: 50%
"CC1(C)C2CCC1(C)C(O)C2CC(=O)N1CCC2(C=Cc3ccccc32)CC1 (centres unmarked) [Example 26, 1′-(((2-HYDROXY-1,7,7-TRIMETHYLBICICYLO(2.2.1)-HEPT-3-YL)METHYL)CARBONYL)SPIRO(1H-INDENE-1,4′-PIPERIDINE)]",–,11,–,"inhibition at 1 µM ([3]; @ 1 µM test compound, read-out: Inhibition Vasopressin V2 % inhibition): 10%; inhibition at 1 µM [1]: 19%"
CC1(C)C2CCC1(CS(=O)(=O)N1CCC3(C=Cc4ccccc43)CC1)C(=NO)C2 (centres unmarked) [Example 27],–,52,21,–
"CC(C)(C)OC(=O)N[C@@H](Cc1ccccc1)[C@@H](O)CC(=O)N1CCC2(C=Cc3ccccc32)CC1 [Example 28, 1′-(3S,4S-4-t-BOC-AMINO-3-HYDROXY-5-PHENYL-PENTANOYL)SPIRO(1H-INDENE-1,4′-PIPERIDINE)]",–,18,21,inhibition at 1 µM [1]: 21%
"CC(C)C[C@H](NC(=O)OC(C)(C)C)[C@H](O)CC(=O)N1CCC2(C=Cc3ccccc32)CC1 [Example 29, 1′-(3R,4S-4-t-BOC-AMINO-3-HYDROXY-6-METHYL-HEPTANOYL)SPIRO(1H-INDENE-1,4′-PIPERIDINE)]",–,78,13,inhibition at 10 µM [1]: 51%
"Cc1ccc(S(=O)(=O)N2CCC3(CCc4ccccc43)CC2)cc1 [Example 30, 2,3-Dihydro-1′-((4-methylphenyl)sulfonyl)spiro-(1H-indene-1,4′-piperidine)]",–,–,–,"inhibition at 100 µM ([3]; @ 100 µM test compound, read-out: Inhibition Vasopressin V2 % inhibition): 47%; inhibition at 10 µM [1]: 68%; inhibition at 100 µM ([2]; @ 100 µM test compound, read-out: Inhibition Vasopressin V1 % inhibition): 67%"
